Data reported in ChEMBL document CHEMBL1201862, “PubChem BioAssay data set” (2004).
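Values below derive from 48-hour exposures of cells grown in 96-well plates, with endpoints linearly interpolated between the two concentrations bracketing the appropriate inhibition level. GI50 = concentration required for 50% inhibition of growth.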 Calls of active or inactive are those of the source. Cut-off read from the data, not from the text of the source: active = GI50 up to about 1.1 µM and inactive = higher.

What was measured:
Experiment in all cases: DTP human tumour cell line panel, 48 h
SK-OV-3 = system: SK-OV-3
K562 = system: K562
OVCAR-5 = system: OVCAR-5
CAKI-1 = system: CAKI-1
SK-MEL-5 = system: SK-MEL-5
CCRF-CEM = system: CCRF-CEM
MDA-MB-435 = system: MDA-MB-435
NCI/ADR-RES = system: NCI/ADR-RES
SF-268 = system: SF-268
MOLT-4 = system: MOLT-4
SF-539 = system: SF-539
KM12 = system: KM12
NCI-H460 = system: NCI-H460
OVCAR-8 = system: OVCAR-8
NCI-H522 = system: NCI-H522
SK-MEL-2 = system: SK-MEL-2
ACHN = system: ACHN
RPMI-8226 = system: RPMI-8226
UACC-62 = system: UACC-62
MDA-MB-231 = system: MDA-MB-231
SF-295 = system: SF-295
A498 = system: A498
A549 = system: A549
M14 = system: M14
NCI-H23 = system: NCI-H23
NCI-H226 = system: NCI-H226
LOX IMVI = system: LOX IMVI
HCT-15 = system: HCT-15
MDA-N = system: MDA-N
DU-145 = system: DU-145
HCT-116 = system: HCT-116
SN12C = system: SN12C
IGROV-1 = system: IGROV-1
U-251 = system: U-251
UO-31 = system: UO-31
UACC-257 = system: UACC-257
RXF 393 = system: RXF 393
COLO 205 = system: COLO 205
OVCAR-4 = system: OVCAR-4
MCF7 = system: MCF7
HT-29 = system: HT-29
HCC 2998 = system: HCC 2998
SW-620 = system: SW-620
PC-3 = system: PC-3
HL-60 = system: HL-60
T47D = system: T47D
SR = system: SR
HOP-92 = system: HOP-92
TK-10 = system: TK-10
786-0 = system: 786-0
SNB-75 = system: SNB-75
EKVX = system: EKVX
SNB-19 = system: SNB-19
Hs-578T = system: Hs-578T
BT-549 = system: BT-549
HOP-62 = system: HOP-62
OVCAR-3 = system: OVCAR-3
Malme-3M = system: Malme-3M
SK-MEL-28 = system: SK-MEL-28

## CN(C)c1ccc(C(=NNC(=O)c2cc3ccccc3[nH]2)c2ccc(N(C)C)cc2)cc1
SK-OV-3
  GI50: 1.62 µM (inactive)
K562
  GI50: 0.0792 µM (active)
OVCAR-5
  GI50: 0.94 µM (active)
CAKI-1
  GI50: 0.971 µM (active)
SK-MEL-5
  GI50: 0.407 µM (active)
CCRF-CEM
  GI50: 0.326 µM (active)
MDA-MB-435
  GI50: 0.024 µM (active)
NCI/ADR-RES
  GI50: 0.177 µM (active)
SF-268
  GI50: 0.433 µM (active)
MOLT-4
  GI50: 0.293 µM (active)
SF-539
  GI50: 0.573 µM (active)
KM12
  GI50: 0.33 µM (active)
NCI-H460
  GI50: 0.348 µM (active)
OVCAR-8
  GI50: 0.608 µM (active)
NCI-H522
  GI50: 0.275 µM (active)
SK-MEL-2
  GI50: 0.171 µM (active)
ACHN
  GI50: 1.1 µM (active)
RPMI-8226
  GI50: 0.321 µM (active)
UACC-62
  GI50: 0.409 µM (active)
MDA-MB-231
  GI50: 0.457 µM (active)
SF-295
  GI50: 0.303 µM (active)
A498
  GI50: 1.05 µM (active)
A549
  GI50: 0.637 µM (active)
M14
  GI50: 0.185 µM (active)
NCI-H23
  GI50: 0.912 µM (active)
NCI-H226
  GI50: 35.8 µM (inactive)
LOX IMVI
  GI50: 0.811 µM (active)
HCT-15
  GI50: 0.156 µM
MDA-N
  GI50: 0.0388 µM (active)
DU-145
  GI50: 1.39 µM (inactive)
HCT-116
  GI50: 0.422 µM (active)
SN12C
  GI50: 1.35 µM (inactive)
IGROV-1
  GI50: 0.395 µM (active)
U-251
  GI50: 0.348 µM (active)
UO-31
  GI50: 0.942 µM (active)
UACC-257
  GI50: 4.04 µM (inactive)
RXF 393
  GI50: 1.15 µM (inactive)
COLO 205
  GI50: 0.305 µM (active)
OVCAR-4
  GI50: 2.73 µM (inactive)
MCF7
  GI50: 0.245 µM (active)
HT-29
  GI50: 0.195 µM (active)
HCC 2998
  GI50: 0.193 µM (active)
SW-620
  GI50: 0.299 µM (active)
PC-3
  GI50: 0.598 µM (active)
HL-60
  GI50: 0.26 µM (active)
T47D
  GI50: > 23.8 µM (inactive)
SR
  GI50: < 0.033 µM (active)
HOP-92
  GI50: 3.22 µM (inactive)
TK-10
  GI50: 4.56 µM (inactive)
786-0
  GI50: 1.53 µM (inactive)
SNB-75
  GI50: 0.632 µM (active)
EKVX
  GI50: 1.85 µM (inactive)
SNB-19
  GI50: 0.625 µM (active)
Hs-578T
  GI50: 0.359 µM (active)
BT-549
  GI50: 3.69 µM (inactive)
HOP-62
  GI50: 1.77 µM (inactive)
OVCAR-3
  GI50: 0.276 µM (active)

## Cc1cc2[nH]c(=NS(=O)(=O)c3cc(C)c(Cl)cc3S)[nH]c2cc1C
SK-OV-3
  GI50: > 100 µM (inactive)
K562
  GI50: 59.7 µM (inactive)
OVCAR-5
  GI50: > 100 µM (inactive)
CAKI-1
  GI50: > 100 µM (inactive)
SK-MEL-5
  GI50: 32.7 µM (inactive)
CCRF-CEM
  GI50: 21.4 µM (inactive)
MDA-MB-435
  GI50: 65.5 µM (inactive)
NCI/ADR-RES
  GI50: 91.4 µM (inactive)
SF-268
  GI50: 83.8 µM (inactive)
MOLT-4
  GI50: 21.5 µM (inactive)
Malme-3M
  GI50: > 100 µM (inactive)
SF-539
  GI50: 68.9 µM (inactive)
KM12
  GI50: 46.2 µM (inactive)
NCI-H460
  GI50: 16.9 µM (inactive)
OVCAR-8
  GI50: 77.3 µM (inactive)
NCI-H522
  GI50: > 100 µM (inactive)
SK-MEL-28
  GI50: > 100 µM (inactive)
SK-MEL-2
  GI50: > 100 µM (inactive)
ACHN
  GI50: 73.8 µM (inactive)
RPMI-8226
  GI50: 45.9 µM (inactive)
UACC-62
  GI50: > 100 µM (inactive)
MDA-MB-231
  GI50: > 100 µM (inactive)
SF-295
  GI50: 53.8 µM (inactive)
A498
  GI50: > 100 µM (inactive)
A549
  GI50: 35.7 µM (inactive)
M14
  GI50: 86.5 µM (inactive)
NCI-H23
  GI50: > 100 µM (inactive)
LOX IMVI
  GI50: 28.9 µM (inactive)
HCT-15
  GI50: 73.3 µM
MDA-N
  GI50: > 100 µM (inactive)
DU-145
  GI50: > 100 µM (inactive)
HCT-116
  GI50: 51.4 µM (inactive)
SN12C
  GI50: > 100 µM (inactive)
IGROV-1
  GI50: 96.4 µM (inactive)
U-251
  GI50: 36.2 µM (inactive)
UO-31
  GI50: 84.5 µM (inactive)
UACC-257
  GI50: > 100 µM (inactive)
RXF 393
  GI50: > 100 µM (inactive)
COLO 205
  GI50: > 100 µM (inactive)
OVCAR-4
  GI50: > 100 µM (inactive)
MCF7
  GI50: 60.8 µM (inactive)
HT-29
  GI50: > 100 µM (inactive)
HCC 2998
  GI50: > 100 µM (inactive)
SW-620
  GI50: 43.4 µM (inactive)
PC-3
  GI50: 66.4 µM (inactive)
HL-60
  GI50: 28.7 µM (inactive)
T47D
  GI50: 82.2 µM (inactive)
SR
  GI50: 19.4 µM (inactive)
HOP-92
  GI50: > 100 µM (inactive)
TK-10
  GI50: > 100 µM (inactive)
786-0
  GI50: 61.7 µM (inactive)
SNB-75
  GI50: > 100 µM (inactive)
EKVX
  GI50: 24.1 µM (inactive)
SNB-19
  GI50: 56.6 µM (inactive)
Hs-578T
  GI50: > 100 µM (inactive)
BT-549
  GI50: > 100 µM (inactive)
HOP-62
  GI50: 23.1 µM (inactive)
OVCAR-3
  GI50: > 100 µM (inactive)
